Experimental data as given in patent US20050288347A1, “Certain triazole-based compounds, compositions, and uses thereof” (priority 2004, published 2005).
“Also recorded” adds a separate entry of the source.

System: protein kinase
Assay: HTS ATP-utilizing enzyme assay, off-chip mobility-shift format (Caliper HTS 250)
Assay type: biochemical, human
Conditions: test compound 10 μM; for protein kinase against which the compound exhibits inhibitory activity (Table 3): active = activity greater than three-sigma from the mean of the predominately inactive population for that enzyme; for Kinase: kinase(s) for which the compound exhibits protein kinase inhibitory activity, active = greater than three-sigma from the mean activity of inactive compounds
Method in brief: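 Single-point screen at 10 μM compound in HEPES pH 7.5 buffer with Triton X-100 and BSA, 2.5 h at 20–22 °C. Substrate-to-phosphopeptide ratio measured by off-chip microfluidic mobility shift; EDTA wells as 100% and DMSO wells as 0% control, hits called at three-sigma limits.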

SMILES | protein kinase against which the compound exhibits inhibitory activity (Table 3) | Kinase
COc1ccc(-c2nnc(SCC3CCCCC3)[nH]2)cc1 [3-(cyclohexylmethylthio)-5-(4-methoxyphenyl)-4H-1,2,4-triazole] | AURORA-A; also recorded: c-TAK1 | –
Cn1c(Cn2nnc3ccccc32)nnc1SCC(=O)Nc1nccs1 | – | GSK3-β; also recorded: GSK3-α; also recorded: CDK2-cyclinE
COc1ccc(-n2c(Cc3ccccc3)nnc2SCC(=O)Nc2ccccc2)cc1 | – | CHEK2
Cc1cccc(-c2nnc(SCC(=O)c3ccc4c(c3)OCCO4)[nH]2)c1 | – | FLT-3; also recorded: GSK3-α; also recorded: AURORA-A
Cc1ccc(NCc2nnc(SCc3nnc(-c4ccccc4)o3)n2Cc2ccco2)c(C)c1 | AURORA-A | –
Cn1c(SCC(=O)Nc2nc3c(s2)CCCC3)nnc1C1CC1 | – | CDK2-cyclinE
COCCCn1c(C)nnc1SCC(=O)Nc1ccccc1[N+](=O)[O-] | – | FYN
N#CCSc1nnc(-c2ccc(OC(F)(F)F)cc2)[nH]1 [2-(5-(4-(trifluoromethoxy)phenyl)-4H-1,2,4-triazol-3-ylthio)acetonitrile] | – | DYRK2; also recorded: FLT-3; also recorded: AURORA-A
CCOCCSc1nnc(-c2ccccc2)[nH]1 [3-(2-ethoxyethylthio)-5-phenyl-4H-1,2,4-triazole] | 3-(2-ethoxyethylthio)-5-phenyl-4H-1,2,4-triazole AURORA-A and FLT-3 and DYRK2 | –
CCOCCSc1nnc(-c2cccnc2)[nH]1 [3-(5-(2-ethoxyethylthio)-4H-1,2,4-triazol-3-yl)pyridine] | AURORA-A | –
O=C(O)c1ccc(CSc2nnc(-c3ccc(OC(F)(F)F)cc3)[nH]2)cc1 | FLT-3; also recorded: AURORA-A; also recorded: DYRK2 | –
COc1ccc(-c2nnc(SCC#N)[nH]2)cc1 [2-(5-(4-methoxyphenyl)-4H-1,2,4-triazol-3-ylthio)acetonitrile] | – | FLT-3; also recorded: DYRK2; also recorded: AURORA-A
Clc1ccc(CSc2nnc(-c3ccncc3)n2-c2ccccc2)cc1 [4-(5-(4-chlorobenzylthio)-4-phenyl-4H-1,2,4-triazol-3-yl)pyridine] | AURORA-A and PKA and MSK1 | –
COCCCn1c(SCC(=O)OCc2ccccc2)nnc1-c1ccc(OC)cc1 | – | CDK2-cyclinE and MSK1
COc1ccc(NCc2nnc(SCC(=O)Nc3cccc(-c4ccccc4)c3)n2C)cc1 | – | PDGFRR-α and FYN and CHEK2
Clc1cccc(-c2nnc(SCc3ccccc3)[nH]2)c1 [3-(benzylthio)-5-(3-chlorophenyl)-4H-1,2,4-triazole] | AURORA-A; also recorded: c-TAK1; also recorded: FLT-3 | –
Sc1nnc(COc2ccc3ccccc3c2)n1-c1ccccc1 [5-((naphthalen-2-yloxy)methyl)-4-phenyl-4H-1,2,4-triazole-3-thiol] | – | AURORA-A
CCOc1ccc(NCc2nnc(SCC#N)n2-c2cccc(Cl)c2)cc1 | – | PDGFRR-α and FYN
CCOC(=O)c1ccc(NC(=O)CSc2nnc(C)n2CCOC)cc1 | – | AKT1
O=C(CSc1nnc(-c2cccnc2)n1Cc1ccco1)Nc1nccs1 | – | GSK3-α; also recorded: GSK3-β; also recorded: CDK2-cyclinE
COc1ccc(Cc2nnc(SCc3cccc4ccccc34)[nH]2)cc1 [3-(4-methoxybenzyl)-5-(naphthalen-1-ylmethylthio)-4H-1,2,4-triazole] | AURORA-A | –
Cn1c(SCC(=O)N2CCOCC2)nnc1-c1ccco1 [2-(5-(furan-2-yl)-4-methyl-4H-1,2,4-triazol-3-ylthio)-1-morpholinoethanone] | – | FYN
O=C(CSc1nnc(-c2ccc(O)cc2)n1Cc1ccco1)NCc1ccc2c(c1)OCO2 | – | CDK2-cyclinA and CDK5 and CDK2-cyclinE
c1ccc(-c2nnc(SCC3CCCCC3)[nH]2)cc1 [3-(cyclohexylmethylthio)-5-phenyl-4H-1,2,4-triazole] | AURORA-A; also recorded: c-TAK1; also recorded: CHEK2 | –
Cc1cc(C)nc(SCc2nnc(SCc3ccccc3)n2Cc2ccco2)n1 | CDK1 | –
O=C(CSc1nnc(-c2ccc(O)cc2)n1Cc1ccco1)c1ccccc1 | – | GSK3-β and GSK3-α and MSK2

Further lines, results first:

protein kinase against which the compound exhibits inhibitory activity (Table 3) | Kinase | SMILES
– | GSK3-β; also recorded: GSK3-α | Cc1ccc(NCc2nnc(S)n2CC2CCCO2)cc1Cl (stereo not drawn)
CHEK2 | – | COCCn1c(SCCN2CCOCC2)nnc1-c1cc2ccccc2cc1O
– | AKT1 | CC(C)OC(=O)CSc1nnc(-c2cccnc2)n1Cc1ccco1
– | GSK3-α | Cn1c(S)nnc1COc1ccc2ccccc2c1 [4-methyl-5-((naphthalen-2-yloxy)methyl)-4H-1,2,4-triazole-3-thiol]
– | MSK2 and FYN and HCK | Cn1c(SCC(=O)c2ccc(O)c(O)c2)nnc1-c1ccccc1
– | SRC and AURORA-A | O=C(O)CSc1nnc(CNc2cccc(C(F)(F)F)c2)n1Cc1ccco1
– | AURORA-A | COc1ccc(-n2c(SCC(=O)O)nnc2-c2ccccc2OC)cc1
FYN and FLT-3 and CSK | – | Cn1c(SCC(=O)NNC(=O)c2ccccc2O)nnc1-c1ccccc1
GSK3-α | – | Oc1ccc(-c2nnc(SCCN3CCOCC3)n2-c2ccccc2)cc1 [4-(5-(2-morpholinoethylthio)-4-phenyl-4H-1,2,4-triazol-3-yl)phenol]
– | LCK | COc1ccc(OCc2nnc(SCC(=O)N3CCCc4ccccc43)n2-c2ccc(C)cc2)cc1
– | GSK3-α | CSCCc1nnc(SCC#N)[nH]1 [2-(5-(2-(methylthio)ethyl)-4H-1,2,4-triazol-3-ylthio)acetonitrile]
GSK3-α | – | Cc1nnc(SCc2ccccc2)n1Cc1ccco1 [3-(benzylthio)-4-(furan-2-ylmethyl)-5-methyl-4H-1,2,4-triazole]
– | AURORA-A | CCOC(=O)CSc1nnc(-c2ccccc2O)n1-c1ccccc1OC
– | PDGFRR-α | COc1cc(NC(=O)c2ccco2)c(OC)cc1NC(=O)CSc1nnc(-c2cccs2)n1C
PKA and AURORA-A and MSK2 | – | CCn1c(SCc2ccc(Cl)cc2)nnc1-c1ccncc1 [4-(5-(4-chlorobenzylthio)-4-ethyl-4H-1,2,4-triazol-3-yl)pyridine]
– | AURORA-A | COc1ccc(-n2c(SC(C)C(=O)O)nnc2-c2ccccc2)cc1 (stereo not drawn) [2-(4-(4-methoxyphenyl)-5-phenyl-4H-1,2,4-triazol-3-ylthio)propanoic acid]
– | AKT1 | Cc1ccc(-n2c(COc3cccc4ccccc34)nnc2SC(C)C(=O)O)cc1 (stereo not drawn)
– | CHEK2 | CC(=O)c1ccc(NC(=O)CSc2nnc(COc3ccccc3)n2-c2ccc(C)cc2)cc1
– | PDGFRR-α | COc1ccc(-n2c(CNc3ccc(C)cc3)nnc2SCC(=O)O)cc1
GSK3-α; also recorded: GSK3-β | – | COc1ccc(-n2c(SCCN3CCOCC3)nnc2-c2ccc(O)cc2)cc1

protein kinase against which the compound exhibits inhibitory activity (Table 3) | Kinase | SMILES
– | AURORA-A | Cc1ccc(-n2c(SC(C)C(=O)O)nnc2-c2cccnc2)cc1 (stereo not drawn) [2-(5-(pyridin-3-yl)-4-p-tolyl-4H-1,2,4-triazol-3-ylthio)propanoic acid]
AURORA-A | – | CCn1c(COc2cccc3ccccc23)nnc1SCCC(=O)O
– | AURORA-A | COc1ccccc1OCc1nnc(S)n1Cc1ccccc1 [4-benzyl-5-((2-methoxyphenoxy)methyl)-4H-1,2,4-triazole-3-thiol]
– | AURORA-A | Cn1c(SCC(=O)N2CCOCC2)nnc1-c1ccc(O)cc1
– | PDGFRR-α and FYN | CCn1c(SCC(=O)OC)nnc1-c1ccc([N+](=O)[O-])cc1 [methyl 2-(4-ethyl-5-(4-nitrophenyl)-4H-1,2,4-triazol-3-ylthio)acetate]
– | FYN and CDK2-cyclinE | COc1ccc(NCc2nnc(SCC(=O)OC(C)C)n2-c2ccc(OC)cc2)cc1
– | AURORA-A | O=C(CSc1nnc(-c2cccnc2)[nH]1)c1ccccc1 [1-phenyl-2-(5-(pyridin-3-yl)-4H-1,2,4-triazol-3-ylthio)ethanone]
AURORA-A | – | COc1ccccc1-n1c(SCCN2CCCCC2)nnc1-c1cccnc1
– | PAK2 | CCOC(=O)CSc1nnc(-c2ccco2)n1-c1ccc(C)cc1 [ethyl 2-(5-(furan-2-yl)-4-p-tolyl-4H-1,2,4-triazol-3-ylthio)acetate]
– | AKT1 | CC1CCCCC1NC(=O)CSc1nnc(-c2ccccc2)n1Cc1ccccc1 (stereo not drawn)
PRAK and FYN | – | Cn1c(SCc2ccc(Cl)c(Cl)c2)nnc1-c1ccc(Cl)cc1 [3-(4-chlorophenyl)-5-(3,4-dichlorobenzylthio)-4-methyl-4H-1,2,4-triazole]
– | GSK3-α; also recorded: GSK3-β | CSCCc1nnc(SCC(=O)O)[nH]1 [2-(5-(2-(methylthio)ethyl)-4H-1,2,4-triazol-3-ylthio)acetic acid]
– | PDGFRR-α and AURORA-A and FYN | COc1ccc(NCc2nnc(SCC(=O)Nc3cccc(Cl)c3)n2C)cc1
– | CDK1 | COc1ccc(-n2c(CNc3cc(C(F)(F)F)ccc3Cl)nnc2SCC#N)cc1
– | AKT1 | COc1ccc(-c2nnc(SCC(=O)Nc3ccc4c(c3)OCO4)n2C)cc1
FYN | – | O=C(CSc1nnc(-c2ccncc2)n1-c1ccc(F)cc1)NN(O)C(=O)c1ccccc1
– | PDGFRR-α and GSK3-α and ABL1 | CCOc1ccc2nc(NC(=O)CSc3nnc(-c4ccncc4)n3CC3CCCO3)sc2c1 (stereo not drawn)
– | GSK3-α | CCn1c(S)nnc1COc1ccc(Cl)c(C)c1 [5-((4-chloro-3-methylphenoxy)methyl)-4-ethyl-4H-1,2,4-triazole-3-thiol]
– | AURORA-A | N#CCSc1nnc(-c2cccnc2)n1-c1ccccc1 [2-(4-phenyl-5-(pyridin-3-yl)-4H-1,2,4-triazol-3-ylthio)acetonitrile]
– | AURORA-A | COc1ccc(C(=O)CSc2nnc(-c3cc4ccccc4cc3O)n2Cc2ccco2)cc1
